# Source: patent US9765018B2, “IDO inhibitors” (BRISTOL-MYERS SQUIBB COMPANY, priority 2013, dated 2017)
# Target: IDO (Homo sapiens (Human), UniProt P14902)
# Experiment: Kynurenine assay in IFN-γ-stimulated Hela cells
# Assay type: cell-based
# Details: 20 h, read-out: Hela Kyurenine (IC50)
# Procedure: Reagents: Hela cells (ATCC, CCL-2)
# IFNg (R&D, 28-IF-100)—resuspend at 10 ug/mL in PBS with 0.1% BSA 30% TCA
# Ehrlich reagent (2% w/v p-dimethylaminobenzaldehyde in glacial acetic acid)
# Cell Lines and Culture Conditions
# Hela cancer cell lines were acquired from the American Type Culture Collection. Cells were maintained in phenol red free-RPMI1640 medium containing high glucose and L-glutamine (Invitrogen) supplemented with 10% fetal bovine serum (FBS; Invitrogen). Cell cultures were incubated at 37° C., 5% CO2, and 100% humidity.
# Cell Treatment and Kynurenine Assay
# Hela cells were seeded on 96-well plates (40,000 cells per well) and allowed to adhere for 5-6 hours. Cells were then treated with vehicle (DMSO) or with IDO inhibitor at a top dose of 30 μM (3-fold dilution all the way down to 1.5 nM). A final concentration of 100 ng/mL of human recombinant IFN-γ (R&D, 28-IF-100) was immediately added to the cells to stimulate IDO expression. Treated cells were then incubated for 20 hours at 37° C. At the end of the 20 h incubation, reactions were terminated by the addition of 30% TCA to each well. Plates were incubated for 30 minutes at 50° C. to hydrolyze N-formylkynurenine to kynurenine. Cells were centrifuged 10 minutes at 2400 rpm. 100 ul of supernatants were transferred to new 96 flat well plates and mixed with 100 ul Ehrlich reagent. The resulting solution was incubated 10 minutes at RT. Absorbance at 490 nm was read using Spectra Max 384 (Molecular Devices).
# Sequence of IDO (P14902 whole entry): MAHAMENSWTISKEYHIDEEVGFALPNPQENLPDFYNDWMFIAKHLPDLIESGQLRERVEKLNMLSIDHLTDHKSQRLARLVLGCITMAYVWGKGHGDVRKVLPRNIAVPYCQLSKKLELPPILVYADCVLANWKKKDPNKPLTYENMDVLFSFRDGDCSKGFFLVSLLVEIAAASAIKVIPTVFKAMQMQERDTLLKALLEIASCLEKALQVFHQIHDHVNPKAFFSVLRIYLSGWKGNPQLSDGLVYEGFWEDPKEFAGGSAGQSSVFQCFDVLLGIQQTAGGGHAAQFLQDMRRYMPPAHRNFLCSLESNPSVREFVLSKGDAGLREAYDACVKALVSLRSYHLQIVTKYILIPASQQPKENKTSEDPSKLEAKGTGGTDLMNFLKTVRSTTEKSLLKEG
row,Compound,IC50 [µM]
1,"O=C(Nc1ccccc1Cl)Nc1cc(-c2ccc(C(=O)O)c(Cl)c2)ccc1Oc1ccccc1C(F)(F)F [Example 203, 3-chloro-3′-(3-(2-chlorophenyl)ureido)-4′-(2-(trifluoromethyl)phenoxy)biphenyl-4-carboxylic acid]",0.5
2,"COc1ccc(NC(=O)Nc2cc(-c3ccc(OC)c(C(=O)O)c3)ccc2Oc2ccccc2C(C)(C)C)cc1 [Example 87, 4′-(2-(tert-butyl)phenoxy)-3′-(3-(4-methoxyphenyl)ureido)-4-methoxy-[1,1′-biphenyl]-3-carboxylic acid]",0.28
3,"COc1ccc(-c2ccc(Oc3ccccc3Cl)c(NC(=O)Nc3ccc(C)cc3)c2)cc1C(=O)O [Example 51, 4′-(2-chlorophenoxy)-4-methoxy-3′-(3-p-tolylureido)biphenyl-3-carboxylic acid]",0.83
4,"CCc1ccc(NC(=O)Nc2cc(-c3ccc(OC)c(C(=O)O)c3)ccc2Oc2ccccc2C(C)(C)C)cc1 [Example 67, 4′-(2-tert-butylphenoxy)-3′-(3-(4-ethylphenyl)ureido)-4-methoxybiphenyl-3-carboxylic acid]",0.58
5,"CC(C)(C)c1ccccc1Oc1ccc(-c2cccc(C(=O)O)c2)cc1NC(=O)Nc1ccccc1Cl [Example 228, 4′-(2-tert-butylphenoxy)-3′-(3-(2-chlorophenyl)ureido)biphenyl-3-carboxylic acid]",0.42
6,"O=C(Nc1ccc(OC(F)(F)F)cc1)Nc1cc(-c2cccc(C(=O)O)c2)ccc1Oc1ccc(Cl)cc1 [Example 243, 4′-(4-chlorophenoxy)-3′-(3-(4-(trifluoromethoxy)phenyl)ureido) biphenyl-3-carboxylic acid]",1.82
7,"CC(C)(C)c1ccccc1Oc1ccc(-c2ccc(C(=O)O)c(Cl)c2)cc1NC(=O)Nc1ccccc1C(F)(F)F [Example 214, 4′-(2-tert-butylphenoxy)-3-chloro-3′-(3-(2-(trifluoromethyl)phenyl)ureido) biphenyl-4-carboxylic acid]",0.15
8,"COc1ccc(-c2ccc(Oc3ccccc3C(C)(C)C)c(NC(=O)Nc3ccc4c(c3)CCC4)c2)cc1C(=O)O [Example 102, 4′-(2-(tert-butyl)phenoxy)-3′-(3-(2,3-dihydro-1H-inden-5-yl)ureido)-4-methoxy-[1,1′-biphenyl]-3-carboxylic acid]",0.22
9,COc1ccc(-c2cnc(Oc3ccccc3C(C)(C)C)c(NC(=O)Nc3ccc(C)cc3)c2)cc1C(=O)O [Example 335],0.34
10,"Cc1cccc(NC(=O)Nc2cc(-c3cc(F)cc(C(=O)O)c3)ccc2Oc2ccccc2C(C)(C)C)c1 [Example 251, 4′-(2-tert-butylphenoxy)-5-fluoro-3′-(3-m-tolylureido) biphenyl-3-carboxylic acid]",0.74
11,"CCc1ccccc1Oc1ccc(-c2ccc(OC)c(C(=O)O)c2)cc1NC(=O)Nc1ccccc1C [Example 56, 4′-(2-ethylphenoxy)-4-methoxy-3′-(3-o-tolylureido)biphenyl-3-carboxylic acid]",0.13
12,"O=C(Nc1ccccc1Cl)Nc1cc(-c2cccc(C(=O)O)c2)ccc1Oc1ccccc1C(F)(F)F [Example 259, 3′-(3-(2-chlorophenyl)ureido)-4'-(2-(trifluoromethyl)phenoxy) biphenyl-3-carboxylic acid]",2.21
13,"CC(C)(C)c1ccccc1Oc1ccc(-c2cc(F)cc(C(=O)O)c2)cc1NC(=O)Nc1ccc(OC(F)(F)F)cc1 [Example 222, 4′-(2-tert-butylphenoxy)-5-fluoro-3′-(3-(4-(trifluoromethoxy)phenyl)ureido) biphenyl-3-carboxylic acid]",1.63
14,"O=C(Nc1ccccc1)Nc1cc(-c2ccccc2-c2nnn[nH]2)ccc1Oc1cccc2c1CCCC2 [Example 184, 1-phenyl-3-(4-(5,6,7,8-tetrahydronaphthalen-1-yloxy)-2′-(1H-tetrazol-5-yl)biphenyl-3-yl)urea]",1.1
15,"CC(C)(C)c1ccccc1Oc1ccc(-c2ccccc2C(=O)O)cc1NC(=O)Nc1ccccc1Cl [Example 155, 4′-(2-tert-butylphenoxy)-3′-(3-(2-chlorophenyl)ureido)biphenyl-2-carboxylic acid]",0.45
16,"O=C(Nc1ccccc1Cl)Nc1cc(-c2cccc(C(=O)O)c2)ccc1Oc1ccc(Cl)cc1 [Example 242, 4′-(4-chlorophenoxy)-3′-(3-(2-chlorophenyl)ureido)biphenyl-3-carboxylic acid]",1.15
17,"Cc1ccccc1NC(=O)Nc1cc(-c2cccc(C(=O)O)c2)ccc1Oc1cccc(Cl)c1 [Example 244, 4′-(3-chlorophenoxy)-3′-(3-o-tolylureido) biphenyl-3-carboxylic acid]",0.84

row,Compound,IC50 [µM]
1,"COc1ccc(-c2ccc(Oc3ccccc3C(C)(C)C)c(NC(=O)Nc3c(F)cccc3F)c2)cc1C(=O)O [Example 80, 4′-(2-(tert-butyl)phenoxy)-3′-(3-(2,6-difluorophenyl)ureido)-4-methoxy-[1,1′-biphenyl]-3-carboxylic acid]",0.13
2,"Cc1ccc(NC(=O)Nc2cc(-c3ccc(C(=O)O)c(Cl)c3)ccc2Oc2ccccc2C(F)(F)F)cc1 [Example 205, 3-chloro-3′-(3-p-tolylureido)-4′-(2-(trifluoromethyl)phenoxy)biphenyl-4-carboxylic acid]",0.85
3,"COc1ccc(-c2ccc(Oc3ccccc3C(C)(C)C)c(NC(=O)Nc3ccccc3)c2)cc1C(=O)O [Example 78, 4′-(2-(tert-butyl)phenoxy)-4-methoxy-3′-(3-phenylureido)-[1,1′-biphenyl]-3-carboxylic acid]",0.08
4,"COc1ccc(-c2ccc(Oc3ccccc3C(C)(C)C)c(NC(=O)Nc3cccc(C)c3C)c2)cc1C(=O)O [Example 92, 4′-(2-(tert-butyl)phenoxy)-3′-(3-(2,3-dimethylphenyl)ureido)-4-methoxy-[1,1′-biphenyl]-3-carboxylic acid]",0.24
5,"COc1ccccc1Oc1ccc(-c2ccc(OC)c(C(=O)O)c2)cc1NC(=O)Nc1ccccc1Cl [Example 68, 3′-(3-(2-chlorophenyl)ureido)-4-methoxy-4′-(2-methoxyphenoxy)biphenyl-3-carboxylic acid]",0.49
6,"COc1ccc(-c2ccc(Oc3ccccc3C(C)(C)C)c(NC(=O)Nc3c(Cl)cccc3Cl)c2)cc1C(=O)O [Example 82, 4′-(2-(tert-butyl)phenoxy)-3′-(3-(2,6-dichlorophenyl)ureido)-4-methoxy-[1,1′-biphenyl]-3-carboxylic acid]",0.84
7,"CC(C)(C)c1ccccc1Oc1ccc(-c2cccc(C(=O)O)c2)cc1NC(=O)Nc1cccc(Cl)c1 [Example 231, 4′-(2-tert-butylphenoxy)-3′-(3-(3-chlorophenyl)ureido)biphenyl-3-carboxylic acid]",0.72
8,"CC(C)(C)c1ccccc1Oc1ccc(-c2cccc(C(=O)O)c2)cc1NC(=O)NC1CCCCC1 [Example 221, 4′-(2-tert-butylphenoxy)-3′-(3-cyclohexylureido) biphenyl-3-carboxylic acid]",1.01
9,"CCNC(=O)Nc1cc(-c2cccc(C(=O)O)c2)ccc1Oc1ccccc1C(C)(C)C [Example 220, 4′-(2-tert-butylphenoxy)-3′-(3-ethylureido) biphenyl-3-carboxylic acid]",0.93
10,"CC(C)(C)c1ccccc1Oc1ccc(-c2cc(F)cc(C(=O)O)c2)cc1NC(=O)Nc1ccccc1Cl [Example 253, 4′-(2-tert-butylphenoxy)-3′-(3-(2-chlorophenyl)ureido)-5-fluorobiphenyl-3-carboxylic acid]",1.1
11,"Cc1ccc(NC(=O)Nc2cc(-c3ccc(C(=O)O)cc3)ccc2Oc2ccccc2C(C)(C)C)cc1 [Example 256, 4′-(2-tert-butylphenoxy)-3′-(3-p-tolylureido) biphenyl-4-carboxylic acid]",0.31
12,"CC(C)(C)c1ccccc1Oc1ccc(-c2ccc(C(=O)O)cc2)cc1NC(=O)Nc1ccccc1Cl [Example 202, 4′-(2-tert-butylphenoxy)-3′-(3-(2-chlorophenyl)ureido)biphenyl-4-carboxylic acid]",1.69
13,"Cc1ccc(NC(=O)Nc2cc(-c3cccc(C(=O)O)c3)ccc2Oc2c(Cl)cccc2Cl)cc1 [Example 247, 4′-(2,6-dichlorophenoxy)-3′-(3-p-tolylureido) biphenyl-3-carboxylic acid]",1.34
14,"4′-(2-(tert-butyl)phenoxy)-3′-(3-(4-fluorophenyl)ureido)-4-methoxy-[1,1′-biphenyl]-3-carboxylic acid [Example 107]",0.32
15,"COc1cc(-c2ccc(Oc3ccccc3C(C)(C)C)c(NC(=O)Nc3ccccc3C)c2)ccc1C(=O)O [Example 211, 4′-(2-tert-butylphenoxy)-3-methoxy-3′-(3-o-tolylureido) biphenyl-4-carboxylic acid]",1.63
16,"COc1ccc(NC(=O)Nc2cc(-c3ccc(OC)c(C(=O)O)c3)ccc2Oc2ccccc2C(C)(C)C)c(C)c1 [Example 93, 4′-(2-(tert-butyl)phenoxy)-4-methoxy-3′-(3-(4-methoxy-2-methylphenyl)ureido)-[1,1′-biphenyl]-3-carboxylic acid]",0.62
17,"COc1ccc(-c2ccc(Oc3ccccc3C(C)(C)C)c(NC(=O)Nc3cc(Cl)ccc3Cl)c2)cc1C(=O)O [Example 104, 4′-(2-(tert-butyl)phenoxy)-3′-(3-(2,5-dichlorophenyl)ureido)-4-methoxy-[1,1′-biphenyl]-3-carboxylic acid]",0.1
